Legend:
Assay in all cases: relative viability (nuclei count vs DMSO), 5 days (fraction); higher = more cells survive
[1] = compound: CS(=O)(=O)c1ccc(C(=O)Nc2ccc(Cl)c(-c3ccccn3)c2)c(Cl)c1 [Vismodegib] + Nc1ncn([C@H]2C[C@H](O)[C@@H](CO)O2)c(=O)n1 [Decitabine] (partner 2 µM)
In short: (§1)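 Medians of duplicate plates are given as relative viability. That measure is the nuclei count in treated wells divided by the count in vehicle wells. Counts were taken on 4× images of lung cancer cell lines in 1536-well plates, 5 days after pin-tool dosing the day after seeding with one drug alone or a fixed anchor-drug dose plus five library-drug doses (not always all listed) in √10 steps.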

[2] = compound: CS(=O)(=O)c1ccc(C(=O)Nc2ccc(Cl)c(-c3ccccn3)c2)c(Cl)c1 [Vismodegib] + Cc1cc(Nc2cc(N3CCN(C)CC3)nc(Sc3ccc(NC(=O)C4CC4)cc3)n2)n[nH]1 [Tozasertib] (partner 0.1 µM)
In short: as §1

[3] = compound: CS(=O)(=O)c1ccc(-c2cnc(N)c(C(=O)Nc3ccccc3)n2)cc1 [VE-821] + CS(=O)(=O)CCNCc1ccc(-c2ccc3ncnc(Nc4ccc(OCc5cccc(F)c5)c(Cl)c4)c3c2)o1 [Lapatinib] (partner 2 µM)
In short: as §1

[4] = compound: CS(=O)(=O)c1ccc(-c2cnc(N)c(C(=O)Nc3ccccc3)n2)cc1 [VE-821] + COc1cc2c(Oc3ccc(NC(=O)C4(C(=O)Nc5ccc(F)cc5)CC4)cc3F)ccnc2cc1OCCCN1CCOCC1 [Foretinib] (partner 0.25 µM)
In short: as §1

Row | Cell Line | relative viability ([1]; first compound 0.08 µM) | relative viability ([1]; first compound 0.253 µM) | relative viability ([1]; first compound 0.8 µM) | relative viability ([1]; first compound 2.53 µM) | relative viability ([1]; first compound 8 µM) | relative viability ([2]; first compound 0.08 µM) | relative viability ([2]; first compound 0.253 µM) | relative viability ([2]; first compound 0.8 µM) | relative viability ([2]; first compound 2.53 µM) | relative viability ([2]; first compound 8 µM) | relative viability ([3]; first compound 0.08 µM) | relative viability ([3]; first compound 0.253 µM) | relative viability ([3]; first compound 0.8 µM) | relative viability ([3]; first compound 2.53 µM) | relative viability ([3]; first compound 8 µM) | relative viability ([4]; first compound 0.08 µM) | relative viability ([4]; first compound 0.253 µM) | relative viability ([4]; first compound 0.8 µM) | relative viability ([4]; first compound 2.53 µM) | relative viability ([4]; first compound 8 µM)
1 | NCI-H2023 | 0.224 | 0.197 | 0.285 | 0.246 | 0.236 | 0.356 | 0.341 | 0.348 | 0.315 | 0.227 | 0.918 | 0.878 | 0.713 | 0.477 | 0.202 | 0.998 | 0.785 | 0.511 | 0.383 | 0.343
2 | NCI-H2085 | 0.548 | 0.461 | 0.544 | 0.56 | 0.561 | 0.835 | 0.849 | 0.85 | 0.698 | 0.621 | 0.8 | 0.758 | 0.507 | 0.815 | 0.563 | 1.05 | 0.915 | 0.863 | 1.01 | 0.812
3 | NCI-H2087 | 0.267 | 0.25 | 0.266 | 0.296 | 0.233 | 0.258 | 0.306 | 0.212 | 0.185 | 0.234 | 0.987 | 1.12 | 1.13 | 1.26 | 1.02 | 1.12 | 0.982 | 1.22 | 1.33 | 1
4 | NCI-H2126 | 0.598 | 0.544 | 0.592 | 0.549 | 0.611 | 0.841 | 0.814 | 0.849 | 0.772 | 0.794 | 0.741 | 0.713 | 0.747 | 0.677 | 0.6 | 1.38 | 1.1 | 1.21 | 1.1 | 0.764
5 | NCI-H2170 | 0.489 | 0.477 | 0.455 | 0.463 | 0.467 | 0.733 | 0.664 | 0.673 | 0.675 | 0.743 | 0.289 | 0.278 | 0.256 | 0.272 | 0.272 | 1.01 | 0.972 | 0.952 | 0.958 | 0.798
6 | NCI-H2347 | 0.645 | 0.603 | 0.593 | 0.646 | 0.612 | 0.589 | 0.574 | 0.554 | 0.485 | 0.574 | 1.02 | 1.05 | 0.664 | 1.03 | 1.14 | 0.542 | 0.995 | 0.633 | 1.03 | 0.946
7 | NCI-H2405 | 0.739 | 0.801 | 0.693 | 0.712 | 0.741 | 0.705 | 0.733 | 0.7 | 0.709 | 0.765 | 1.15 | 0.976 | 1.03 | 1.31 | 1.05 | 1.09 | 1.06 | 0.993 | 1.09 | 1.12
8 | NCI-H3122 | 0.469 | 0.499 | 0.512 | 0.423 | 0.323 | 0.399 | 0.382 | 0.343 | 0.384 | 0.373 | 1.06 | 1 | 0.926 | 1.03 | 1 | 0.977 | 0.995 | 0.959 | 0.986 | 0.925
9 | PC-3 [JPC-3] | 0.863 | 0.838 | 0.904 | 0.814 | 0.864 | 0.932 | 0.87 | 0.933 | 0.852 | 0.873 | 0.512 | 0.474 | 0.461 | 0.482 | 0.424 | 1.12 | 0.947 | 1.07 | 1.06 | 0.976
10 | PC-14 | 0.224 | 0.198 | 0.237 | 0.199 | 0.234 | 0.554 | 0.606 | 0.556 | 0.539 | 0.547 | 0.336 | 0.297 | 0.286 | 0.32 | 0.277 | 1.1 | 0.913 | 0.974 | 1.02 | 0.984
11 | RERF-LC-KJ | 0.704 | 0.7 | 0.765 | 0.654 | 0.633 | 0.495 | 0.532 | 0.413 | 0.506 | 0.449 | 0.92 | 0.756 | 0.798 | 0.772 | 0.715 | 0.861 | 0.868 | 0.793 | 0.767 | 0.698
12 | SK-LU-1 | 0.619 | 0.639 | 0.588 | 0.618 | 0.607 | 0.269 | 0.348 | 0.295 | 0.347 | 0.361 | 0.907 | 0.668 | 0.625 | 0.582 | 0.525 | 0.871 | 0.775 | 0.738 | 0.59 | 0.254
13 | SK-MES-1 | 0.401 | 0.341 | 0.435 | 0.374 | 0.443 | 0.881 | 0.871 | 0.974 | 0.841 | 0.827 | 0.483 | 0.467 | 0.437 | 0.446 | 0.397 | 0.99 | 0.989 | 0.655 | 1.02 | 0.89
14 | SW 1573 |  | 0.425 | 0.509 | 0.519 | 0.615 | 0.185 | 0.206 | 0.16 | 0.13 | 0.19 | 1.12 | 1.07 | 1.12 | 0.58 | 0.989 | 0.96 | 0.853 | 0.861 | 0.815 | 0.87
